Data reported in US20200323888A1, “INHIBITORS” (VESTLANDETS INNOVASJONSSELSKAP AS, priority 2017, published 2020).
Square brackets hold non-standard residues; d marks the D form. Ends that are not written are not given here. Nle = CCCC[C@H](N)C(=O)O; CoA = coenzyme A

Assays:
zebrafish embryos = assay: Phenotype after injection into zebrafish embryos; assay type: in vivo; settings: injected into zebrafish embryos; compared with reference inhibitor
Description: A norleucine (Nle) residue was therefore tried in place of methionine in order to try to circumvent the synthesis problem.

Naa80 = molecular target: T1, Naa80 (Homo sapiens, UniProt Q93015); assay: Nt-acetylation inhibitor assay for Naa80; assay type: biochemical
T1 construct: The PCR product containing the CDS was inserted into the TOPO TA vector; made in house; host or cells: E. coli BL21 Star (DE3)
T1 sequence (Q93015 1-308 isoform Q93015-2): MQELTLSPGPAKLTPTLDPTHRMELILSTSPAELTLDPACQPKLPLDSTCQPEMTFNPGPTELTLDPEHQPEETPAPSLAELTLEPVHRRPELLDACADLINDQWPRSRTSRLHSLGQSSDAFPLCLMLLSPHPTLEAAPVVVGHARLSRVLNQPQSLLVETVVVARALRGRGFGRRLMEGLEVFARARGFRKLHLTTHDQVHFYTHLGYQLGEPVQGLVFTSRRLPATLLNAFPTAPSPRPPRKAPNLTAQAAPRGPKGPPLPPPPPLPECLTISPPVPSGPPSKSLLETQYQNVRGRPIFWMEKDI
Method: FIG. 10: (A) IC50 values for inhibitors measured in an Nt-acetylation inhibitor assay for Naa80. (B) Ki-values for CoA-Ac-DDDI-NH2 (SEQ ID NO: 6) for different human NATs measured in an Nt-acetylation inhibitor assay. All reactions were performed at least three times and in triplicate; errors bars represent standard deviation of each measurement.
The IC50 values for these compounds were tested as described in Foyn H, et al. (2013) “Design, Synthesis, and Kinetic Characterization of Protein N-Terminal Acetyltransferase Inhibitors”. ACS Chem Biol 8:1121-1127; and Foyn H, et al. (2017) “DTNB-Based quantification of in vitro enzymatic N-terminal acetyltransferase activity”, Methods Mol. Biol. 1574:9-15. Briefly, a colorimetric acetylation assay, 5,5′-dithiobis-(2-nitrobenzoic acid) (DTNB) assay was used to measure the catalytic activity of NATs after incubation with NAT inhibitors. In the DTNB assay, thiols present in the enzymatic product, CoA, cleaves DTNB and produces 2-nitro-5-thiobenzoate (NTB-), which absorbs light with a wavelength of 412 nm. NTB- forms in a 1:1 molar ratio to the thiol groups present in the sample. Therefore, NTB- was quantified by measuring the absorbance at 412 nm and indirectly measures peptide Nt-acetylation. […] After 30 min-60 min incubation at 37° C., the enzyme activity was quenched with quenching buffer (3.2 M guanidinium-HCl, 100 mM sodium phosphate dibasic pH 6.8). Triplicates were run for all positive samples, while negative controls were duplicated. As a negative control, reactions without enzyme were incubated at 37° C. before the reaction was quenched and added enzyme. In order to measure CoA production, 2 mM DTNB (dissolved in 100 mM sodium phosphate dibasic pH 6.8 and 10 mM EDTA) was added to the quenched reaction and the absorbance at 412 nm was measured with a spectrophotometer (Epoc). Background absorbance (determined in negative controls) was subtracted from the absorbance determined in each individual reaction. Thiophenolate production was quantified assuming ε=13.7×103 M−1 cm−1. For NatA and NatB enzyme complex inhibition, immunoprecipitation was performed using Naa15 ab (custom made, Arnesen T, Anderson D, Baldersheim C, Lanotte M, Varhaug J E, Lillehaug J R. (2005) Identification and characterization of the human ARD1-NATH protein acetyltransferase complex. Biochemical J 386(Pt 3):433-43.) or Naa20 ab (Nat5, abnova) respectively and protein A/G magnetic agarose beads (Millipore). A similar Nt-acetylation reaction was performed as previously described and the enzymatic activity was quenched with a final concentration of 1% TFA and analyzed by HPLC (Evjenth R, Van Damme P, Gevaert K, Arnesen T (2013) HPLC-based Quantification of in vitro N-terminal Acetylation. Methods Mol Biol 981:95-102.).
We then pursued Naa80 bisubstrate analogue inhibitors based on the results of the substrate screening and the sequences of the cellular substrates processed β- and γ-actin. We synthesized bisubstrate conjugates of Coenzyme A coupled to the tetrapeptides MDEL-NH2 (SEQ ID NO: 8), DDDI-NH2 (SEQ ID NO: 6), EEEI-NH2 (SEQ
ID NO: 7), and MLGT-NH2 (SEQ ID NO: 52) via an acetamide (Ac) linker.
The following additional Naa80 bisubstrate analogue inhibitors were produced and tested as described above: […]

Naa10 = molecular target: T2, Naa10 (Homo sapiens, UniProt P41227); assay: Nt-acetylation inhibitor assay (DTNB), Naa10; assay type: biochemical; settings: selectivity, panel of human NATs
T2 sequence (P41227 1-235): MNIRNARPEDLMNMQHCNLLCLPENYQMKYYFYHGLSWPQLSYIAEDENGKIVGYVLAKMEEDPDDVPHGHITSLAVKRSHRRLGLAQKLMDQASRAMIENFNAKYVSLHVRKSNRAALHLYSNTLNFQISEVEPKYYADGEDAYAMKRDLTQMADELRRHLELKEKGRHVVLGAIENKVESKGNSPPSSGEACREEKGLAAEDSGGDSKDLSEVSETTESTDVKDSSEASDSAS
Method: The IC50 values for these compounds were tested as described in Foyn H, et al. (2013) “Design, Synthesis, and Kinetic Characterization of Protein N-Terminal Acetyltransferase Inhibitors”. ACS Chem Biol 8:1121-1127; and Foyn H, et al. (2017) “DTNB-Based quantification of in vitro enzymatic N-terminal acetyltransferase activity”, Methods Mol. Biol. 1574:9-15. Briefly, a colorimetric acetylation assay, 5,5′-dithiobis-(2-nitrobenzoic acid) (DTNB) assay was used to measure the catalytic activity of NATs after incubation with NAT inhibitors. […] Therefore, NTB- was quantified by measuring the absorbance at 412 nm and indirectly measures peptide Nt-acetylation. […] In order to measure CoA production, 2 mM DTNB (dissolved in 100 mM sodium phosphate dibasic pH 6.8 and 10 mM EDTA) was added to the quenched reaction and the absorbance at 412 nm was measured with a spectrophotometer (Epoc). Background absorbance (determined in negative controls) was subtracted from the absorbance determined in each individual reaction. Thiophenolate production was quantified assuming ε=13.7×103 M−1 cm−1. […] A similar Nt-acetylation reaction was performed as previously described and the enzymatic activity was quenched with a final concentration of 1% TFA and analyzed by HPLC (Evjenth R, Van Damme P, Gevaert K, Arnesen T (2013) HPLC-based Quantification of in vitro N-terminal Acetylation. Methods Mol Biol 981:95-102.). […]

NatA = molecular target: T3, NatA (Homo sapiens, UniProt P41227); assay: Nt-acetylation inhibitor assay, immunoprecipitated NatA complex, HPLC quantification; assay type: biochemical; settings: inhibitors tested against NatA; all compounds with C-terminal amide
T3 construct: endogenous in cells
T3 sequence (P41227 1-235): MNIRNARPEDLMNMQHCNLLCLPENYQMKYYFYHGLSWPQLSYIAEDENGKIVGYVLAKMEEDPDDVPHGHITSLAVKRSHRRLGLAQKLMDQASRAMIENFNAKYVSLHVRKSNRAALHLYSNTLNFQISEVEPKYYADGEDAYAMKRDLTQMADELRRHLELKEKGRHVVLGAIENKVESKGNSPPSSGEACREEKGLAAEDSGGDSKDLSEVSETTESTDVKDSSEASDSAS
T3 sequence (Q9BXJ9 1-866 partner): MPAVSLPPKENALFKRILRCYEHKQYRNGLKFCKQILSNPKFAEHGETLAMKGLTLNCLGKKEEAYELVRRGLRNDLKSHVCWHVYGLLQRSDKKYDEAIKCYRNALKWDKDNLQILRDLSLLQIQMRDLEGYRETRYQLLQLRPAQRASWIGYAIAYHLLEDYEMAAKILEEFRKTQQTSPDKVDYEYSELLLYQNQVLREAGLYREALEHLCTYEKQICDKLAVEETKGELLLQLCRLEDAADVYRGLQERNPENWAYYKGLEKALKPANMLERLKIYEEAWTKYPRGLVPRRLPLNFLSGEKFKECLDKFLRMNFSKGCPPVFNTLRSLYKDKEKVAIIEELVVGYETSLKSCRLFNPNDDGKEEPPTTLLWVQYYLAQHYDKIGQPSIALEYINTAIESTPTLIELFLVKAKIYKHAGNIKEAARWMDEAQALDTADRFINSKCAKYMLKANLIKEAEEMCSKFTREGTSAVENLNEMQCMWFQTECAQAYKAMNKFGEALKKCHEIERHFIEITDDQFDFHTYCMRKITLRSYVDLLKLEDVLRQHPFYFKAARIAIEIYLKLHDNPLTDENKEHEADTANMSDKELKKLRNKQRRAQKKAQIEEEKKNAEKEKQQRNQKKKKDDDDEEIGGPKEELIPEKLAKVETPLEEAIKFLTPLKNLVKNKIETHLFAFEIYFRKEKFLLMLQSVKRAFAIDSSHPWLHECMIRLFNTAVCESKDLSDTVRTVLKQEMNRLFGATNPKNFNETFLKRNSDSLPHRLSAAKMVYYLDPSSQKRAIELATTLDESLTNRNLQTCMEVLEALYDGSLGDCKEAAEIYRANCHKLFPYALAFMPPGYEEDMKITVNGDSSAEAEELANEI
Method: The IC50 values for these compounds were tested as described in Foyn H, et al. (2013) “Design, Synthesis, and Kinetic Characterization of Protein N-Terminal Acetyltransferase Inhibitors”. ACS Chem Biol 8:1121-1127; and Foyn H, et al. (2017) “DTNB-Based quantification of in vitro enzymatic N-terminal acetyltransferase activity”, Methods Mol. Biol. 1574:9-15. Briefly, a colorimetric acetylation assay, 5,5′-dithiobis-(2-nitrobenzoic acid) (DTNB) assay was used to measure the catalytic activity of NATs after incubation with NAT inhibitors. In the DTNB assay, thiols present in the enzymatic product, CoA, cleaves DTNB and produces 2-nitro-5-thiobenzoate (NTB-), which absorbs light with a wavelength of 412 nm. NTB- forms in a 1:1 molar ratio to the thiol groups present in the sample. Therefore, NTB- was quantified by measuring the absorbance at 412 nm and indirectly measures peptide Nt-acetylation. Recombinant purified NAT enzyme was mixed with different substrate peptides (300 uM, custom-made) and Ac-CoA (300 uM) in acetylation buffer (50 mM Tris/HEPES pH 8.5-7.4, 100 mM NaCl, 10% glycerol and 0.2 mM EDTA) and with inhibitor concentration (0-500 uM). After 30 min-60 min incubation at 37° C., the enzyme activity was quenched with quenching buffer (3.2 M guanidinium-HCl, 100 mM sodium phosphate dibasic pH 6.8). Triplicates were run for all positive samples, while negative controls were duplicated. As a negative control, reactions without enzyme were incubated at 37° C. before the reaction was quenched and added enzyme. In order to measure CoA production, 2 mM DTNB (dissolved in 100 mM sodium phosphate dibasic pH 6.8 and 10 mM EDTA) was added to the quenched reaction and the absorbance at 412 nm was measured with a spectrophotometer (Epoc). Background absorbance (determined in negative controls) was subtracted from the absorbance determined in each individual reaction. Thiophenolate production was quantified assuming ε=13.7×103 M−1 cm−1. […] A similar Nt-acetylation reaction was performed as previously described and the enzymatic activity was quenched with a final concentration of 1% TFA and analyzed by HPLC (Evjenth R, Van Damme P, Gevaert K, Arnesen T (2013) HPLC-based Quantification of in vitro N-terminal Acetylation. Methods Mol Biol 981:95-102.).
In order to ensure selectivity towards NatA, the CoA-Ac-SSNIeP (SEQ ID NO: 4) was tested against other NATs. Using the Cheng-Prusoff equation for competitive inhibitors, the dissociation constant, Ki, was calculated from IC50 values and [S]/Km ratios for all the NATs.

DDDI24 = molecular target: T4, DDDI24
T4 chain: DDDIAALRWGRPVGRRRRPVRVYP

MDEL24 = molecular target: T5, MDEL24
T5 chain: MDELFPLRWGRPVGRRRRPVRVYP

MDDD24 = molecular target: T6, MDDD24
T6 chain: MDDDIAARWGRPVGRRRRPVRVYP

Molecule: CoA-Ac-SSNlePK-folic acid: CoA-Ac-SS(Nle)PK (SEQ ID NO: 23) carrying folic acid as targeting moiety ({CoA-Ac}-SS[Nle]PK; not fully specified (C-terminus); also: folic acid conjugate as targeting moiety, site not given here)
- phenotype in zebrafish (zebrafish embryos): comparable phenotypes as CoA-Ac-SSNleP-NH2

Molecule: CC[C@H](C)[C@H](NC(=O)[C@H](CC(=O)O)NC(=O)[C@H](CC(=O)O)NC(=O)[C@H](CC(=O)O)NC(=O)CSCCNC(=O)CCNC(=O)C(O)C(C)(C)COP(=O)(O)OP(=O)(O)OCC1OC(n2cnc3c(N)ncnc32)C(O)C1OP(=O)(O)O)C(N)=O (stereo partly drawn) [CoA-Ac-DDDI-NH2]
- IC50 (Naa80; Naa80): 0.38 µM
- more potent Naa80 inhibitor than CoA-Ac-EEEI-NH2 (Naa80; ratio of IC50 values): 3 fold
- more potent Naa80 inhibitor than CoA-Ac-MDEL-NH2 (Naa80; ratio of IC50 values): 3.3 fold
- reduced potency for Naa10 compared to Naa80 (Naa10): 88 fold

Molecule: CCCC[C@H](NC(=O)[C@H](CO)NC(=O)[C@@H]1CCCN1C(=O)CSCCNC(=O)CCNC(=O)C(O)C(C)(C)COP(=O)(O)OP(=O)(O)OCC1OC(n2cnc3c(N)ncnc32)C(O)C1OP(=O)(O)O)C(=O)N1CCC[C@H]1C(N)=O (stereo partly drawn) [CoA-Ac-PS(Nle)P]
- IC50 (NatA): > 1000 µM

B1: MBP-HishNAA80 fusion protein (MBP-Naa80) (protein)
chain: MQELTLSPGPAKLTPTLDPTHRMELILSTSPAELTLDPACQPKLPLDSTCQPEMTFNPGPTELTLDPEHQPEETPAPSLAELTLEPVHRRPELLDACADLINDQWPRSRTSRLHSLGQSSDAFPLCLMLLSPHPTLEAAPVVVGHARLSRVLNQPQSLLVETVVVARALRGRGFGRRLMEGLEVFARARGFRKLHLTTHDQVHFYTHLGYQLGEPVQGLVFTSRRLPATLLNAFPTAPSPRPPRKAPNLTAQAAPRGPKGPPLPPPPPLPECLTISPPVPSGPPSKSLLETQYQNVRGRPIFWMEKDI
- substrate ranking by product formation (DDDI24): its cellular substrate, processed β-actin, DDDI24 (SEQ ID NO: 41) ranked third
- product formation, fold higher compared to the second best substrate MDDD24 (MDEL24): a 5-fold higher product formation compared to the second best substrate, MDDD24
- substrate ranking by product formation (MDDD24): the second best substrate, MDDD24
